The target in assay [1] is T1, Rat recombinant PDE10A (rPDE10A2) (Rattus norvegicus, UniProt Q9QYJ6).
T1 construct: made in house; host or cells: Sf9 insect cells (baculovirus)
T1 sequence (Q9QYJ6 1-794): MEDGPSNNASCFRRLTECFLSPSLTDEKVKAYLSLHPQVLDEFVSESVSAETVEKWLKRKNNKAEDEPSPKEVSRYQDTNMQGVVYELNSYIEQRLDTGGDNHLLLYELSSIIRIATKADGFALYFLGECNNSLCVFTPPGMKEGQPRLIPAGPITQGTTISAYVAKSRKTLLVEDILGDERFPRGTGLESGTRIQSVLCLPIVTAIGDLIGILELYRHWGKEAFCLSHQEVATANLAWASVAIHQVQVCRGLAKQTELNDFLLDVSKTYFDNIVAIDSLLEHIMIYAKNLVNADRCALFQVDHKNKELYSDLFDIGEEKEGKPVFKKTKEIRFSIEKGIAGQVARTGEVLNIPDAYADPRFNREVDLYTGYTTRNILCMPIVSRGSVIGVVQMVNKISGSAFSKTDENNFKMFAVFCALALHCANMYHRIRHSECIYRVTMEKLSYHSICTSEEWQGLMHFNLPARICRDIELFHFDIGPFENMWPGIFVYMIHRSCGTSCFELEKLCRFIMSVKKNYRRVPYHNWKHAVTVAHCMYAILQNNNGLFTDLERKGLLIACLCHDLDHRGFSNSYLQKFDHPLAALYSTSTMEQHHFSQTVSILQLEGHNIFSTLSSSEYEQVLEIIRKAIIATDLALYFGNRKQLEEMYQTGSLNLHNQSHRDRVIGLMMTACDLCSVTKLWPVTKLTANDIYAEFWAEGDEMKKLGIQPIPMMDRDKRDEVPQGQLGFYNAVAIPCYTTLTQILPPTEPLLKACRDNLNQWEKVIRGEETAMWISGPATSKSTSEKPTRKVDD
The experiment in a line: In vitro assay PDE10A (SPA, 3H-cAMP). It counts as biochemical. The note with it: read-out: PIC50 PDE10 (converted).

Assay [2] deals with Apomorphine-induced agitation. The experiment in a line: Reversal of Apomorphine-induced Agitation in Rats (APO). The format is in vivo, rat.
Protocol: Apomorphine (1.0 mg/kg, i.v.)-induced agitation was scored every 5 min over the first hour after injection of apomorphine. The score system was: (3) pronounced, (2) moderate, (1) slight, and (0) absent. […] For the present purpose, the cumulative agitation score over the whole 60-min observation period was used as a measure to describe the maximum effect (Max effect).
Assay [3] deals with T2, Human recombinant PDE2A (hPDE2A) (Homo sapiens, UniProt O00408).
T2 construct: made in house; host or cells: Sf9 insect cells (baculovirus)
T2 sequence (O00408 whole entry): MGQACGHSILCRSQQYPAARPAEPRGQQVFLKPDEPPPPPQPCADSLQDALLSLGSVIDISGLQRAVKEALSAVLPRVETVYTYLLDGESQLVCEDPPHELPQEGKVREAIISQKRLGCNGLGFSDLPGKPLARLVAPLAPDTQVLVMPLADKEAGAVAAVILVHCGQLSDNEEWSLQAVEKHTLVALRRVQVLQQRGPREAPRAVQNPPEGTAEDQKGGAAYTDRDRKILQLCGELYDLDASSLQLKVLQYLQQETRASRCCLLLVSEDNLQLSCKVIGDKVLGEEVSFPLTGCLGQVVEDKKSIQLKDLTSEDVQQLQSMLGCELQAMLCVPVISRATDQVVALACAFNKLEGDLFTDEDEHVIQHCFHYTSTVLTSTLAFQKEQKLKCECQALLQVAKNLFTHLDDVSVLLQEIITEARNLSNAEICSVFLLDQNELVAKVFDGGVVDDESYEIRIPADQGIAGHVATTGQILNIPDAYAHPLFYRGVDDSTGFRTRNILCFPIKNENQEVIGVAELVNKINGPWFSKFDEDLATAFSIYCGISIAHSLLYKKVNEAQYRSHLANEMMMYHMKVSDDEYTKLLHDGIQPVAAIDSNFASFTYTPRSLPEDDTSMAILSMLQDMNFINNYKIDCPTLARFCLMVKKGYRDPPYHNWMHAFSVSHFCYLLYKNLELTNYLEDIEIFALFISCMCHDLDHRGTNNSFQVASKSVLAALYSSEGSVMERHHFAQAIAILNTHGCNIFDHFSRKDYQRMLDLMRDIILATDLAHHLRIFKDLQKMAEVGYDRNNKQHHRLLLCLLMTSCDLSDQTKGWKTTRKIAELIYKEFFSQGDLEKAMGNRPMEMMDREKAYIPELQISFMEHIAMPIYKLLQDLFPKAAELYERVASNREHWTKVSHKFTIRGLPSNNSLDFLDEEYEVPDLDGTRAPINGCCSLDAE
Put plainly: In vitro assay PDE2A (SPA, 3H-cGMP). It counts as biochemical. To be noted: read-out: pIC50 PDE2 (converted).

Where [4] appears, read: lowest dose at which ≥67% tested animals respond.

Each structure is given as a SMILES string.

As for `COc1ccc(-c2nnc3c(C)nc4ccc(C(=O)NCc5ccccn5)cc4n23)c(Cl)c1` [Compound B-74], the figures for the IC50 in assay [1] and in assay [3] were 129 nM and 6.92 nM, respectively. Further, in assay [2], the PO Dose at Max Effect stood at 10 mg/kg. Further, in assay [2] (apomorphine 1.0 mg/kg i.v.), the “PO Max effect (cumulative agitation score over 60 min)” value is given as 21. In assay [2] (setting [4]), the PO LAD (lowest active dose) is above 10 mg/kg.
Take `COc1ccc(Cl)c(-c2nnc3c(C)nc4ccc(C(=O)NCc5ccccn5)cc4n23)c1` [Compound B-43]: the results for the IC50 in assay [1] and in assay [3] were 43.7 nM and 1.62 nM, respectively. Besides, the PO Dose at Max Effect in assay [2] was 10 mg/kg. For the same molecule, the “PO Max effect (cumulative agitation score over 60 min)” value in assay [2] (apomorphine 1.0 mg/kg i.v.) is recorded as 19. In addition, the PO LAD (lowest active dose) in assay [2] (setting [4]) came out at 10 mg/kg.
Take `COCC1CCN(Cc2ccc3nc(C)c4nnc(-c5ccccc5Cl)n4c3c2)C1` (stereo not drawn) [Compound B-94]: the IC50 in assay [1] is 64.6 nM; in assay [3], 12.9 nM. For the same molecule, in assay [2] (subcutaneous route), the SC Dose at max effect stood at 5 mg/kg. The “SC Max effect (cumulative agitation score over 60 min)” value in assay [2] (subcutaneous route, apomorphine 1.0 mg/kg i.v.) is listed as 24. For the same molecule, the SC LAD (lowest active dose) in assay [2] (subcutaneous route, lowest dose at which ≥67% tested animals respond) was above 5 mg/kg.

The values are drawn from patent US10604523B2, “1-aryl-4-methyl-[1,2,4]triazolo[4,3-a]quinoxaline derivatives” (Janssen Pharmaceutica NV, priority 2011, dated 2020).
